Laboratory results reported in paper PMC12040169 (PLOS Biology, 2025).

Test: in vitro
Settings: human, hela cells, % viability

## COc1ccccc1CC(=O)N1[C@H](Cc2ccccc2)C[C@@H]2NCCCCC[C@H]21 [CBK285978]
  viability at 28.5 h, 10 µM: 96.3%

## O=C(NC[C@H]1CC[C@H](c2cc(C(=O)N3CCOCC3)c3ccccc3n2)CC1)C1CCCC1 [CBK285979]
  viability at 28.5 h, 10 µM: 89.9%

## Cc1ccc(C2CCCN2C(=O)c2ccc(=O)n(CC(=O)NC3CCCCC3)c2)cc1C (stereo not shown) [CBK285982]
  viability at 28.5 h, 10 µM: 97.4%

## CC(C)(CNC(=O)c1ccc(=O)n(CC(=O)NC2CCCCC2)c1)c1ccccc1F [CBK285983]
  viability at 28.5 h, 10 µM: 90.7%

## CC(C)(CNC(=O)c1ccc(=O)n(CC(=O)NC2CCCCC2)c1)c1ccc(F)cc1 [CBK285984]
  viability at 28.5 h, 10 µM: 83.9%

## Cc1cc(C)nc(Nc2ccc(C3CCCN(S(=O)(=O)c4ccc(F)cc4)C3)nc2)n1 (stereo not shown) [CBK285987]
  viability at 28.5 h, 10 µM: 86%

## Cc1cc(C)nc(Nc2ccc(C3CCCN(C(=O)c4c(C)oc5c4CCCC5)C3)nc2)n1 (stereo not shown) [CBK285988]
  viability at 28.5 h, 10 µM: 109%

## Cn1c(CCC(=O)Nc2ccc3c(c2)CN(Cc2ccccc2)C3)nc2ccccc21 [CBK285990]
  viability at 28.5 h, 10 µM: 81.2%

## COc1ccc(CCC(=O)N2CCCC2c2ccc(Cc3ccccc3F)cn2)cc1 (stereo not shown) [CBK285992]
  viability at 28.5 h, 10 µM: 94.2%

## Cc1cc(C)nc(N2CCC(CC(=O)NC(C)CCN3CCCCCC3)CC2)n1 (stereo not shown) [CBK285993]
  viability at 28.5 h, 10 µM: 96.4%

## Cc1cc(C)nc(N2CCC(CC(=O)NCCCc3ccc(F)cc3)CC2)n1 [CBK285995]
  viability at 28.5 h, 10 µM: 83.1%

## CCn1ccc(NC(=O)CC2CCN(Cc3cccc(C(F)(F)F)c3)CC2)n1 [CBK285997]
  viability at 28.5 h, 10 µM: 101%

## O=C(Cn1cc(C(=O)NCc2ccccc2)ccc1=O)Nc1cc(F)ccc1N1CCCC1 [CBK285998]
  viability at 28.5 h, 10 µM: 97.8%

## COc1cccc(CC(=O)N2CCCC2c2cc(Nc3nc(C)cc(C)n3)cc(C)n2)c1 (stereo not shown) [CBK285999]
  viability at 28.5 h, 10 µM: 90.5%

## Cc1nc2ccccn2c1CC(=O)N1CCCC(c2ccc(Cc3cccc(F)c3)cn2)C1 (stereo not shown) [CBK286002]
  viability at 28.5 h, 10 µM: 91.3%

## CC1CCc2nc(NC(=O)C3CN(S(=O)(=O)c4ccc(F)cc4)C3)sc2C1 (stereo not shown) [CBK286004]
  viability at 28.5 h, 10 µM: 110%

## O=C(Cn1cccc(C(=O)Nc2cc(F)ccc2N2CCCC2)c1=O)NC1CCCCC1 [CBK286008]
  viability at 28.5 h, 10 µM: 88.9%

## Cc1ccc(C)c(C2CCCN2C(=O)c2cccn(CC(=O)NC3CCCCC3)c2=O)c1 (stereo not shown) [CBK286010]
  viability at 28.5 h, 10 µM: 93%

## Cc1[nH]c2c(C)ccc(C)c2c1CC(=O)N1[C@@H](c2ccccc2F)C[C@@H]2NC(=O)CCC[C@H]21 [CBK286011]
  viability at 28.5 h, 10 µM: 76.3%

## CNC(=O)c1ccc(-c2ccc(CNC(=O)C3(c4cccc(F)c4)CCCC3)cc2)nc1C [CBK286013]
  viability at 28.5 h, 10 µM: 105%

## Cc1cc(CCCC(=O)NCc2ccc(-c3ccc(C(N)=O)c(C)n3)cc2)ccc1F [CBK286016]
  viability at 28.5 h, 10 µM: 90.3%

## CC(C)c1ccc(C(C)NC(=O)c2cccn(CC(=O)NC3CCCC3)c2=O)cc1 (stereo not shown) [CBK286018]
  viability at 28.5 h, 10 µM: 91.3%

## Cc1nc(Nc2cccc(C3CCCN3C(=O)COc3ccc(F)cc3)n2)sc1C (stereo not shown) [CBK286019]
  viability at 28.5 h, 10 µM: 87%

## O=C(NCc1ccc(F)cc1)c1ccc(=O)n(CC(=O)N2CCC3(CCCCC3)C2)c1 [CBK286021]
  viability at 28.5 h, 10 µM: 109%

## Cc1ccc(C)c(C2CCCN2C(=O)C2CN(C(=O)C3CCN(C)CC3)C2)c1 (stereo not shown) [CBK286022]
  viability at 28.5 h, 10 µM: 97.5%

## Cn1c(=O)oc2ccc(C(=O)Nc3cccc(-c4ccc(F)cc4)c3)cc21 [CBK286023]
  viability at 28.5 h, 10 µM: 84.9%

## Cc1nc(C2(O)CCCN(Cc3cccc(F)c3)CC2)sc1CCOc1ccccc1 (stereo not shown) [CBK286024]
  viability at 28.5 h, 10 µM: 89.6%

## Cc1cc(C)c2nc(NC(=O)c3ccc(=O)n(CC(=O)N(C)c4ccccc4)c3)sc2c1 [CBK286025]
  viability at 28.5 h, 10 µM: 91.5%

## CCCn1cnc2cc(NC(=O)c3ccc(=O)n(CC(=O)N(C)c4ccccc4)c3)ccc21 [CBK286026]
  viability at 28.5 h, 10 µM: 94.3%

## Cc1ccccc1CCNC(=O)c1cccn(CC(=O)N(C)C2CCCCC2)c1=O [CBK286028]
  viability at 28.5 h, 10 µM: 122%

## Cc1cc(C)nc(N2CCC(CC(=O)NCC(C)N3CCCCCC3)CC2)n1 (stereo not shown) [CBK286029]
  viability at 28.5 h, 10 µM: 94.9%

## O=C(Cc1ccccc1)N1CCC(CC(=O)N2CCC3(CCCCC3)C2)CC1 [CBK286031]
  viability at 28.5 h, 10 µM: 93.8%

## Cc1ccc2c(c1)cc(C(=O)N1CCOC(C(=O)N3CCCCCC3)C1)n2C (stereo not shown) [CBK286032]
  viability at 28.5 h, 10 µM: 109%

## CC(C)(C(=O)N1CCC(C(=O)NCCc2c[nH]c3ccccc23)C1)c1ccc(F)cc1 (stereo not shown) [CBK286034]
  viability at 28.5 h, 10 µM: 102%

## CN(C)c1ncc(-c2ccc(Cl)cc2)c(C2CCCN2C(=O)CN2CCCC2)n1 (stereo not shown) [CBK286037]
  viability at 28.5 h, 10 µM: 99.2%

## CC(C)c1ccc(C(C)NC(=O)c2ccc(=O)n(CC(=O)NC3CCCC3)c2)cc1 (stereo not shown) [CBK286038]
  viability at 28.5 h, 10 µM: 97.4%

## O=C(Cn1cccc(C(=O)NCc2ccccc2)c1=O)Nc1cc(F)ccc1N1CCCC1 [CBK286041]
  viability at 28.5 h, 10 µM: 101%

## CCn1c(C)nc2cc(NC(=O)Cn3cccc(C(=O)NC4CCCCC4)c3=O)ccc21 [CBK286042]
  viability at 28.5 h, 10 µM: 92.9%

## CC(C)c1ccc(C(C)NC(=O)Cn2cccc(C(=O)Nc3ccc(F)cc3)c2=O)cc1 (stereo not shown) [CBK286043]
  viability at 28.5 h, 10 µM: 89.3%

## CC(C)c1ccc(C(C)NC(=O)Cn2cccc(C(=O)NC3CCCCC3)c2=O)cc1 (stereo not shown) [CBK286044]
  viability at 28.5 h, 10 µM: 119%

## CN1CCN(C(=O)Cn2cccc(C(=O)Nc3ccc(F)cc3)c2=O)C(c2ccccc2)C1 (stereo not shown) [CBK286045]
  viability at 28.5 h, 10 µM: 96.6%

## O=C(CC1CCN(C(=O)CC2CCCCC2)CC1)Nc1ccccc1CN1CCCC1 [CBK286046]
  viability at 28.5 h, 10 µM: 100%

## CC(CN1CCOCC1)C(=O)N1CC(C(=O)N2CCN(c3ccccc3)CC2)C1 (stereo not shown) [CBK286047]
  viability at 28.5 h, 10 µM: 90.6%

## CN1CCN(C(=O)Cn2cc(C(=O)Nc3ccc(F)cc3)ccc2=O)C(c2ccccc2)C1 (stereo not shown) [CBK286050]
  viability at 28.5 h, 10 µM: 81.9%

## Cc1ccc(C2CCCN2C(=O)Cn2cc(C(=O)NCc3ccccc3)ccc2=O)cc1C (stereo not shown) [CBK286051]
  viability at 28.5 h, 10 µM: 88.1%

## Cc1ccc(C)c(C2CCCN2C(=O)Cn2cc(C(=O)NCc3ccccc3)ccc2=O)c1 (stereo not shown) [CBK286052]
  viability at 28.5 h, 10 µM: 112%

## O=C(Cn1cccc(C(=O)Nc2ccc(F)cc2)c1=O)Nc1nc2c(s1)CCCCC2 [CBK286055]
  viability at 28.5 h, 10 µM: 84.7%

## O=C(Cn1cccc(C(=O)NC2CCCCC2)c1=O)Nc1nc2c(s1)CCCCC2 [CBK286056]
  viability at 28.5 h, 10 µM: 90.1%

## O=C(Cn1cccc(C(=O)NCc2ccccc2)c1=O)NC1(c2ccccc2)CCCC1 [CBK286058]
  viability at 28.5 h, 10 µM: 89.1%

## CCCn1cnc2cc(NC(=O)Cn3cccc(C(=O)Nc4ccc(F)cc4)c3=O)ccc21 [CBK286060]
  viability at 28.5 h, 10 µM: 84.7%

## CCC(c1ccc(F)cc1)N(C)C(=O)Cn1cccc(C(=O)Nc2ccc(F)cc2)c1=O (stereo not shown) [CBK286061]
  viability at 28.5 h, 10 µM: 88.7%

## Cc1ccc(C)c(C2CCCN2C(=O)Cn2cccc(C(=O)NCc3ccccc3)c2=O)c1 (stereo not shown) [CBK286062]
  viability at 28.5 h, 10 µM: 78.5%

## CC1CCc2nc(NC(=O)Cn3cccc(C(=O)Nc4ccc(F)cc4)c3=O)sc2C1 (stereo not shown) [CBK286063]
  viability at 28.5 h, 10 µM: 95.5%

## CC(CN(C)C(=O)Cn1cccc(C(=O)Nc2ccc(F)cc2)c1=O)c1ccccc1 (stereo not shown) [CBK286065]
  viability at 28.5 h, 10 µM: 92.5%

## CC(CN(C)C(=O)Cn1cccc(C(=O)NC2CCCCC2)c1=O)c1ccccc1 (stereo not shown) [CBK286066]
  viability at 28.5 h, 10 µM: 92.5%

## CC(C)(CNC(=O)Cn1cccc(C(=O)NC2CCCCC2)c1=O)c1ccccc1F [CBK286068]
  viability at 28.5 h, 10 µM: 89.6%

## CCn1c(CN2CCCC2c2nc(N(C)C)ncc2-c2ccccc2)nc2ccccc21 (stereo not shown) [CBK286070]
  viability at 28.5 h, 10 µM: 83.4%

## Cc1cc(C)nc(N2CCC(CC(=O)NCc3ccccc3N3CCCC3)CC2)n1 [CBK286071]
  viability at 28.5 h, 10 µM: 95.5%

## Cc1cc(C)nc(N2CCC(CC(=O)Nc3ccccc3CN3CCCC3)CC2)n1 [CBK286072]
  viability at 28.5 h, 10 µM: 104%

## Cc1cc(C)nc(N2CCC(c3cc(CCOc4ccc(C(F)(F)F)cc4)[nH]n3)C2)n1 (stereo not shown) [CBK286073]
  viability at 28.5 h, 10 µM: 93.5%

## Cc1ccc(C2CCCN2C(=O)Cn2cccc(C(=O)NCc3ccccc3)c2=O)cc1C (stereo not shown) [CBK286074]
  viability at 28.5 h, 10 µM: 89.5%

## CCCn1cnc2cc(NC(=O)Cn3cccc(C(=O)NC4CCCCC4)c3=O)ccc21 [CBK286075]
  viability at 28.5 h, 10 µM: 93%

## Cc1ccc2c(c1)cc(C(=O)N1CCCC(C)(C(=O)NC3CCCC3)C1)n2C (stereo not shown) [CBK286076]
  viability at 28.5 h, 10 µM: 81.3%

## O=C(NCCCc1ccccc1Cl)c1ccc(=O)n(CC(=O)N2CCCCC2)c1 [CBK286078]
  viability at 28.5 h, 10 µM: 85.9%

## CC(C)(CNC(=O)Cn1cc(C(=O)Nc2ccc(F)cc2)ccc1=O)c1cccc(F)c1 [CBK286079]
  viability at 28.5 h, 10 µM: 99.6%

## O=C(Cn1cc(C(=O)NCc2ccc(F)cc2)ccc1=O)NC1(c2ccccc2)CCCC1 [CBK286081]
  viability at 28.5 h, 10 µM: 96.9%

## CC(C)c1ccc(C(C)NC(=O)c2ccc(=O)n(CC(=O)N3CCCCC3)c2)cc1 (stereo not shown) [CBK286084]
  viability at 28.5 h, 10 µM: 88.7%

## O=C(c1ccccc1)N1CCC(c2cccc(Cc3ccccc3Cl)n2)CC1 [CBK286085]
  viability at 28.5 h, 10 µM: 88.2%

## CN(C)c1ncc(-c2ccc(F)cc2)c(C2CCCN2C(=O)c2nccc3ccccc23)n1 (stereo not shown) [CBK286086]
  viability at 28.5 h, 10 µM: 84.3%

## Cc1ccccc1Cc1cccc(C2CCN(CC(=O)Nc3nccs3)CC2)n1 [CBK286089]
  viability at 28.5 h, 10 µM: 97.6%

## COc1ccc(-c2cnc(N)nc2C2CCCN(C(=O)CCCc3ccccc3)C2)cc1 (stereo not shown) [CBK286091]
  viability at 28.5 h, 10 µM: 94.4%

## Nc1ncc(-c2ccc(F)cc2)c(C2CCCN(C(=O)CCc3ccc(F)cc3)C2)n1 (stereo not shown) [CBK286092]
  viability at 28.5 h, 10 µM: 89%

## c1ccc(Nc2nccc(C3CCCN(Cc4ccc5[nH]ccc5c4)C3)n2)nc1 (stereo not shown) [CBK286093]
  viability at 28.5 h, 10 µM: 85.3%

## CCn1c(C)nc2cc(NC(=O)Cn3cc(C(=O)NC4CCCCC4)ccc3=O)ccc21 [CBK286095]
  viability at 28.5 h, 10 µM: 92.9%

## CN(C)CCNC(=O)c1sc2ccccc2c1CC1CCCCCN1C(=O)C1CCC1 (stereo not shown) [CBK286096]
  viability at 28.5 h, 10 µM: 105%

## CC(C)(CNC(=O)Cn1cc(C(=O)NC2CCCCC2)ccc1=O)c1ccccc1F [CBK286099]
  viability at 28.5 h, 10 µM: 89%

## COc1ccc(-c2cncc(C3CN(Cc4ccc(C)cc4OC)CCO3)n2)cc1 (stereo not shown) [CBK286100]
  viability at 28.5 h, 10 µM: 91.8%

## CN1CCN(C(=O)Cn2cc(C(=O)NC3CCCCC3)ccc2=O)C(c2ccccc2)C1 (stereo not shown) [CBK286102]
  viability at 28.5 h, 10 µM: 87.3%

## Cc1cc(Cc2cccc(Cl)c2)cc(C2CCCN(C(=O)CN3CCCC3=O)C2)n1 (stereo not shown) [CBK286103]
  viability at 28.5 h, 10 µM: 94%
